Test results taken from PMC9364673 (Bioorganic Chemistry, 2022).
Where two headings read alike, the source gives them in different places.

Columns and labels:
DPP-4 enzyme = DPP-4 enzyme (Homo sapiens, UniProt P27487); assay: biochemical
type 2 diabetic rats = assay: In vivo antidiabetic effect of a single dose on OGTT in type 2 diabetic; design: species or system male Wistar albino rats; settings: oral doses equivalent to 10 mg/kg, NA: Not active
RAW264.7 cells = assay: MTT cell viability assay on RAW264.7 macrophages; assay type: cell-based, murine; settings: Mus musculus, RAW264.7, 24 h, read-out: IC50 (RAW264.7 cells viability)
[1] = Antioxidant activity, DPPH scavenging method; settings: read-out: IC50 (DPPH scavenging); DPPH 100 μM, 30 min, mean ± SD
normal rats = assay: In vivo screening of antihyperglycemic effect, oral tolerance test; design: species or system male Wistar albino rats; settings: OGTT, oral administration, NA: Not active
CRP = assay: ELISA of CRP release by LPS-stimulated RAW264.7 macrophages; assay type: cell-based, murine; settings: LPS (1 μg/mL) stimulated RAW264.7, compound at ¼ IC50, ELISA, compared to LPS
IL-6 = assay: ELISA of IL-6 release by LPS-stimulated RAW264.7 macrophages; assay type: cell-based, murine; settings: LPS (1 μg/mL) stimulated RAW264.7, compound at ¼ IC50, ELISA, compared to LPS

Sequence of DPP-4 enzyme (P27487 whole entry): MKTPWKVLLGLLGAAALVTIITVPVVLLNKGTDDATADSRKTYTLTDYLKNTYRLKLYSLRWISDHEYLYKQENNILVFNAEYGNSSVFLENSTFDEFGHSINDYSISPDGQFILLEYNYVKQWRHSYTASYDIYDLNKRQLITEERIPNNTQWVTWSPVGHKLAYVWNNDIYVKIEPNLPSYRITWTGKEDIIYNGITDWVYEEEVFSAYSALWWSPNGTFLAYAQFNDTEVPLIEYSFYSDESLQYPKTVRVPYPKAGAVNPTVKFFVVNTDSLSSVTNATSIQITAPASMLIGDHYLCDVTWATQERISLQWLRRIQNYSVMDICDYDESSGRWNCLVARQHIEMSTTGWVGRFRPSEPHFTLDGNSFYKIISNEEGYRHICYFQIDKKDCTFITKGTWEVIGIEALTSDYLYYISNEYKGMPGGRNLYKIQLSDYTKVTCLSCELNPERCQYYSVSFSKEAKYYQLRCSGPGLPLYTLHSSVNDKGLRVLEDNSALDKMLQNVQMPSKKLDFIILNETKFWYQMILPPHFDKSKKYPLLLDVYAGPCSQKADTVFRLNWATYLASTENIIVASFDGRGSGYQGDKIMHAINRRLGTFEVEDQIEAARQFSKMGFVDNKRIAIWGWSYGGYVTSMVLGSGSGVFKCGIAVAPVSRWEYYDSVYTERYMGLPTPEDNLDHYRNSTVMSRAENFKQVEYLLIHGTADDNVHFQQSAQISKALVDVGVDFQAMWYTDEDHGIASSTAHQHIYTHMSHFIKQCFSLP

Structure (SMILES) | IC50 (DPP-4 enzyme) | % Reduction in BGL compared to control (type 2 diabetic rats) | IC50 [1] | % Reduction in BGL compared to control (normal rats) | other results
Cc1ccc(NC(=S)NS(=O)(=O)c2cnc(NN)[nH]c2=O)cc1 [Compound 6b, 1-[(2-Hydrazino-6-oxo-1H-pyrimidin-5-yl)sulfonyl]-3-(4-methylphenyl)-thiourea] | 71 ± 4 nM | 41.00% | 123000 ± 6300 nM |  | IC50 (RAW264.7 cells): 189000 ± 26000 nM
O=c1c(S(=O)(=O)NC(=S)Nc2ccccc2)cnc2[nH]ncn12 [Compound 7a, 1-[(5-oxo-1H-[1], [2], [4]triazolo[4,3-a]pyrimidin-6-yl)sulfonyl]-3-phenyl-thiourea] |  |  |  | 17.55% | IC50 (DPP-4 enzyme; read-out: DPP-4 IC50, in vitro, 0.01 to 10 µM, mean ± SD): 153 ± 8 nM
Cc1ccc(NC(=S)NS(=O)(=O)C2=CNC3SC(=O)CN3C2=O)cc1 (stereo not shown) [Compound 4b, 3-(4-Methylphenyl)-1-[(2,5-dioxo-8,8a-dihydro-3H-thiazolo[3,2-a]pyrimidin-6-yl)sulfonyl]-thiourea] | 63 ± 3 nM | 36.59% | 65900 ± 3400 nM |  | IC50 (RAW264.7 cells): 241000 ± 69200 nM
O=C(O)CSc1ncc(S(=O)(=O)NC(=O)Nc2ccccc2)c(=O)[nH]1 [Compound 5c, 2-[[6-Oxo-5-(phenylcarbamoylsulfamoyl)-1H-pyrimidin-2-yl]sulfanyl]acetic acid] | 290 ± 18 nM |  |  |  | 
NNc1ncc(S(=O)(=O)NC(=O)Nc2ccccc2)c(=O)[nH]1 [Compound 6c, 1-[(2-Hydrazino-6-oxo-1H-pyrimidin-5-yl)sulfonyl]-3-phenyl-urea] | 264 ± 13 nM |  |  | 17.36% | 
CC#CCn1c(N2CCC[C@@H](N)C2)nc2c1c(=O)n(Cc1nc(C)c3ccccc3n1)c(=O)n2C [Linagliptin, linagliptin, reference compound] |  | 36.42% |  |  | 
O=c1[nH]c(N/N=C/c2ccccc2)ncc1S(=O)(=O)NC(=S)Nc1ccccc1 [Compound 8a, 1-[[2-[(2E)-2-benzylidenehydrazino]-6-oxo-1H-pyrimidin-5-yl]sulfonyl]-3-phenyl-thiourea] | 104 ± 5 nM |  |  | 16.88% | 
NNc1ncc(S(=O)(=O)NC(=S)Nc2ccccc2)c(=O)[nH]1 [Compound 6a, 1-[(2-Hydrazino-6-oxo-1H-pyrimidin-5-yl)sulfonyl]-3-phenyl-thiourea] | 47 ± 2 nM | 23.24% | 139000 ± 7100 nM | 17.70% | IC50 (RAW264.7 cells): 175000 ± 24700 nM; reduction of the release of CRP (CRP): about 75.5%; decrease in IL-6 levels (IL-6): about 85.9%
O=C(O)CSc1ncc(S(=O)(=O)NC(=S)Nc2ccccc2)c(=O)[nH]1 [Compound 5a, 2-[[6-Oxo-5-(phenylcarbamothioylsulfamoyl)-1H-pyrimidin-2-yl]sulfanyl]acetic acid] | 577 ± 28 nM |  |  |  | 
Cc1ccc(S(=O)(=O)NC(=O)NN2CC3CCCC3C2)cc1 (stereo not shown) [Diamicron, reference compound] |  |  |  | 15.86% | 
Cc1ccc(NC(=S)NS(=O)(=O)c2cnc(N/N=C/c3ccccc3)[nH]c2=O)cc1 [Compound 8b, 1-[[2-[(2E)-2-benzylidenehydrazino]-6-oxo-1H-pyrimidin-5-yl]sulfonyl]-3-(4-methylphenyl)-thiourea] | 75 ± 3 nM | 23.94% | 60800 ± 3100 nM |  | IC50 (RAW264.7 cells): 155000 ± 24200 nM; reduction of the release of CRP (CRP): ~82.6%; decrease in IL-6 levels (IL-6): ~80.2%
O=C(Nc1ccccc1)NS(=O)(=O)C1=CNC2SC(=O)CN2C1=O (stereo not shown) [Compound 4c, 1-[(2,5-Dioxo-8,8a-dihydro-3H-thiazolo[3,2-a]pyrimidin-6-yl)sulfonyl]-3-phenyl-urea] | 418 ± 20 nM |  |  |  | 
Cc1c(C)c2c(c(C)c1O)CCC(C)(C(=O)O)O2 (stereo not shown) [Trolox, reference compound] |  |  | 55200 ± 2800 nM |  | 
O=C(Nc1ccccc1)NS(=O)(=O)c1cnc(N/N=C/c2ccccc2)[nH]c1=O [Compound 8c, 1-[[2-[(2E)-2-benzylidenehydrazino]-6-oxo-1H-pyrimidin-5-yl]sulfonyl]-3-phenyl-urea] | 468 ± 23 nM |  |  |  | 
Cc1ccc(NC(=O)NS(=O)(=O)C2=CNC3SC(=O)CN3C2=O)cc1 (stereo not shown) [Compound 4d, 3-(4-Methylphenyl)-1-[(2,5-dioxo-8,8a-dihydro-3H-thiazolo[3,2-a]pyrimidin-6-yl)sulfonyl]-urea] | 1320 ± 65 nM |  |  |  | 
Cc1ccc(NC(=S)NS(=O)(=O)c2cnc(SCC(=O)O)[nH]c2=O)cc1 [Compound 5b, 2-[[5-(4-Methylphenylcarbamothioylsulfamoyl)-6-oxo-1H-pyrimidin-2-yl]sulfanyl]acetic acid] | 634 ± 31 nM |  |  | 15.89% | 
